Assay results reported in patent US20040115742A1, “Method to identify specific interaction between ligand and receptor” (priority 2002, published 2004).

Assays:
[1] = molecular target: T1, erythropoietin receptor (EPOR, P19235) (Homo sapiens, UniProt P19235); experiment: cell-based ligand-lactamase fusion binding to cells expressing EPO receptor (CCF2 fluorescence); settings: for fluorescence readout, multiplexed pool of 12 receptors: EPOR in pool of 12 receptors; for fluorescence readout, multiplexed pool of 96 receptors: EPOR in pool of 96 receptors; for fluorescence readout, one on one receptor-ligand binding / fluorescence readout, multiplexed pool of 12 ligands / fluorescence readout, multiplexed pool of 96 ligands: EPOR; for fluorescence readout, one on one receptor-ligand binding: one to one, beta-lactamase reporter, CCF2 substrate
T1 construct: V5-His (from vector pcDNA3.1D/V5-His-TOPO); expressed in transfected cells
T1 sequence (P19235 25-508): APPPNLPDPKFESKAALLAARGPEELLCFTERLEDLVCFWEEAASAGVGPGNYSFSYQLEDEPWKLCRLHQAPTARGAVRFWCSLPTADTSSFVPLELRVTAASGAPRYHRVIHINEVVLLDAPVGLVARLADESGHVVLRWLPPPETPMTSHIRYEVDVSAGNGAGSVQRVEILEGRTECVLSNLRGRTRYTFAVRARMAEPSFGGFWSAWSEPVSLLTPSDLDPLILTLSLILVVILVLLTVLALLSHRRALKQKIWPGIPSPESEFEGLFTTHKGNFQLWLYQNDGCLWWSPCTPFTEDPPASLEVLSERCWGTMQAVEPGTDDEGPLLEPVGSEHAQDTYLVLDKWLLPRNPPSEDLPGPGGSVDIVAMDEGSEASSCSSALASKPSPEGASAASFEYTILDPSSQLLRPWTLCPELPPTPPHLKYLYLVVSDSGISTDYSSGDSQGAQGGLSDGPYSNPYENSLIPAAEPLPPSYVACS
Protocol: (§1) Cells transfected with plasmids expressing a ligand lactamase fusion and cells transiently or stably expressing receptor were independently cultured in multiple well (e.g., 96-well, 384-well, or 1536-well) plates. After growth, the culture medium of the cells transiently or stably expressing receptor was removed, and the culture medium of the cells expressing ligand lactamase fusion was added to the wells of cells stably expressing receptor. After the mixture was incubated at 4° C. for 1 hour, the medium was removed. The cells stably expressing receptor were washed three times with PBS containing 1% FBS (Invitrogen), and a lactamase substrate, such as CCF2 in […], was added to the washed cells in each well, and incubated. The fluorescence emission at 447 nm with excitation at 409 nm was measured using the Spectra Max Gemim (Molecular Devices) at different time points. The increase of fluorescence emission at 447 nm represented the lactamase activity of ligand fusion bound on the cell surface.
The EPO receptor and EPO, IL-8, and TNF ligand lactamase fusion proteins were expressed as described above. The EPO, IL-8, and TNF ligand lactamase fusions were contacted with the EPO receptor in duplicate experiments.
(§2) EPO, IL-8, and TNF receptors and ligands were expressed as described above. Known ligands, including the EPO ligand, were grouped to form a multiplexed pool of 12 ligands and a multiplexed pool of 96 ligands. Compared to the fluorescence readout for one on one receptor-ligand binding for EPO/EPOR (26398 arbitrary units), the fluorescence readout (and thus, binding) was less for EPO/IL-8R (−503) and EPO/TNFR (−1027).
(§3) EPO, IL-8, and TNF receptors and ligands were expressed as described above. Known receptors, including the EPO receptor, were grouped to form a multiplexed pool of 12 receptors and a multiplexed pool of 96 receptors. Compared to the fluorescence readout for one on one receptor-ligand binding for EPOR/EPO (26398 arbitrary units), the fluorescence readout (and thus, binding) was less for EPOR/IL-8 (−902) and EPOR/TNF (−1113.5).

[2] = molecular target: T2, interleukin-8 receptor A (IL8R, P25024) (Homo sapiens, UniProt P25024); experiment: cell-based ligand-lactamase fusion binding to cells expressing IL-8 receptor (CCF2 fluorescence); settings: for fluorescence readout, multiplexed pool of 12 receptors: IL-8R in pool of 12 receptors; for fluorescence readout, multiplexed pool of 96 receptors: IL-8R in pool of 96 receptors; for fluorescence readout, one on one receptor-ligand binding / fluorescence readout, multiplexed pool of 12 ligands / fluorescence readout, multiplexed pool of 96 ligands: IL-8R; for fluorescence readout, one on one receptor-ligand binding: one to one, beta-lactamase reporter, CCF2 substrate
T2 construct: V5-His (from vector pcDNA3.1D/V5-His-TOPO); expressed in transfected cells
T2 sequence (P25024 1-350): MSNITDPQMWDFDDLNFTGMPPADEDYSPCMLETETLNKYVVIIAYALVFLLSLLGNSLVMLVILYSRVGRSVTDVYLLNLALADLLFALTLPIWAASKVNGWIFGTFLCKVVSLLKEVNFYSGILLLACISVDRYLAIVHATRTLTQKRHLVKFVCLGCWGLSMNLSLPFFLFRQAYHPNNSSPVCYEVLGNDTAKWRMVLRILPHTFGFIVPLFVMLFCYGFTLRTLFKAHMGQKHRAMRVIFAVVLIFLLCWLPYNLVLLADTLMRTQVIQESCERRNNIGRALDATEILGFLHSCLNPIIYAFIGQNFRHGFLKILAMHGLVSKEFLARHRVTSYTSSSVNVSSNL
Protocol: as §1
The IL-8 receptor and IL-8, EPO, and TNF ligand lactamase fusion proteins were expressed as described above. The IL-8, EPO, and TNF ligand lactamase fusions were contacted with the IL-8 receptor in duplicate experiments.
EPO, IL-8, and TNF receptors and ligands were expressed as described above. Known ligands, including the IL-8 ligand, were grouped to form a multiplexed pool of 12 ligands and a multiplexed pool of 96 ligands.
EPO, IL-8, and TNF receptors and ligands were expressed as described above. Known receptors, including the IL-8 receptor, were grouped to form a multiplexed pool of 12 receptors and a multiplexed pool of 96 receptors.

[3] = molecular target: T3, tumor necrosis factor receptor 2 (TNFR, P20333) (Homo sapiens, UniProt P20333); experiment: cell-based ligand-lactamase fusion binding to cells expressing TNF receptor (CCF2 fluorescence); settings: for fluorescence readout, multiplexed pool of 12 receptors: TNFR in pool of 12 receptors; for fluorescence readout, multiplexed pool of 96 receptors: TNFR in pool of 96 receptors; for fluorescence readout, one on one receptor-ligand binding / fluorescence readout, multiplexed pool of 12 ligands / fluorescence readout, multiplexed pool of 96 ligands: TNFR; for fluorescence readout, one on one receptor-ligand binding: one to one, beta-lactamase reporter, CCF2 substrate
T3 construct: V5-His (from vector pcDNA3.1D/V5-His-TOPO); expressed in transfected cells
T3 sequence (P20333 23-461): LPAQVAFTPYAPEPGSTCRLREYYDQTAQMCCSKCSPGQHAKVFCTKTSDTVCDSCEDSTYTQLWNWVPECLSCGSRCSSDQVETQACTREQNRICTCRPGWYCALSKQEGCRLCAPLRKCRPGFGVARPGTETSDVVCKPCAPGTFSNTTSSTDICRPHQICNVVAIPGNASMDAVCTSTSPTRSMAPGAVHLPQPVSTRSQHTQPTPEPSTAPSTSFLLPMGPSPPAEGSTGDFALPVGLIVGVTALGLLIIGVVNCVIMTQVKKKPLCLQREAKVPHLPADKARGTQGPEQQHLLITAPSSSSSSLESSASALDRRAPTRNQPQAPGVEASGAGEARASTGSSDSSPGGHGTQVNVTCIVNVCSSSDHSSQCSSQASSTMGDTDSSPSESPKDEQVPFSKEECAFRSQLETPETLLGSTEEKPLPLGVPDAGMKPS
Protocol: as §1
The TNF receptor and TNF, EPO, and IL-8 ligand lactamase fusion proteins were expressed as described above. The TNF, EPO, and IL-8 ligand lactamase fusions were contacted with the TNF receptor in duplicate experiments.
as §2, with “the TNF” for “the EPO”, “for TNF/TNFR (32899” for “for EPO/EPOR (26398”, “for TNF/EPOR (−1113.5)” for “for EPO/IL-8R (−503)”, “and TNF/IL-8R (−814.5).” for “and EPO/TNFR (−1027).”
as §3, with “the TNF” for “the EPO”, “for TNFR/TNF (32899” for “for EPOR/EPO (26398”, “for TNFR/EPO (−1027)” for “for EPOR/IL-8 (−902)”, “and TNFR/IL-8 (−1677).” for “and EPOR/TNF (−1113.5).”

[4] = duplicate experiments, in words

fluorescence readout of the positive well (FIG. 6) ([1]; 96-well plate, cDNA expression library, multiplexing factor of 12, one out of 96 wells)	fluorescence readout, multiplexed pool of 12 receptors [1]	fluorescence readout, multiplexed pool of 96 receptors [1]	fluorescence readout, one on one receptor-ligand binding [1]	fluorescence readout, multiplexed pool of 12 ligands [1]	fluorescence readout, multiplexed pool of 96 ligands [1]	fluorescence readout of ligand binding with EPO receptor (FIG. 3) [1, 4]	fluorescence readout, multiplexed pool of 12 receptors [2]	fluorescence readout, multiplexed pool of 96 receptors [2]	fluorescence readout, one on one receptor-ligand binding [2]	fluorescence readout, multiplexed pool of 12 ligands [2]	fluorescence readout, multiplexed pool of 96 ligands [2]	fluorescence readout of ligand binding with IL-8 receptor (FIG. 3) [2, 4]	Substance	fluorescence readout, multiplexed pool of 12 receptors [3]	fluorescence readout, multiplexed pool of 96 receptors [3]	fluorescence readout, one on one receptor-ligand binding [3]	fluorescence readout, multiplexed pool of 12 ligands [3]	fluorescence readout, multiplexed pool of 96 ligands [3]	fluorescence readout of ligand binding with TNF receptor (FIG. 3) [3, 4]
13444	13570 arbitrary units	1454 arbitrary units	26398 arbitrary units	13570 arbitrary units	1454 arbitrary units	high fluorescence readout	−785 arbitrary units	−1334 arbitrary units	−503 arbitrary units	−785 arbitrary units	−1334 arbitrary units	–	erythropoietin [EPO]	−1598 arbitrary units	−1177 arbitrary units	−1027 arbitrary units	−1598 arbitrary units	−1177 arbitrary units	–
–	−1059 arbitrary units	−1448 arbitrary units	−902 arbitrary units	−1059 arbitrary units	-1450 arbitrary units	–	3785 arbitrary units	−476 arbitrary units	16941 arbitrary units	3785 arbitrary units	−476 arbitrary units	high fluorescence readout	interleukin-8 [IL-8]	−1847 arbitrary units	−718 arbitrary units	−1677 arbitrary units	−147 arbitrary units	−718 arbitrary units	–
–	-1000 arbitrary units	−1634 arbitrary units	−1113.5 arbitrary units	−1005.5 arbitrary units	−1634 arbitrary units	–	−1275.5 arbitrary units	−381 arbitrary units	–	−1275.5 arbitrary units	−381 arbitrary units	–	tumor necrosis factor alpha [TNF]	26974.5 arbitrary units	6485.5 arbitrary units	32899 arbitrary units	26974.5 arbitrary units	6485.5 arbitrary units	high fluorescence readout
